Experimental data reported in US20140005163A1 (NOVARTIS AG, priority 2010, published 2014).

How the values were obtained:
PI3K alpha = molecular target: T1, PI3K alpha (Homo sapiens, UniProt P42336); assay: PI3K alpha kinase assay (Kinase-Glo luminescence); type: biochemical
T1 construct: p85(iSH2) fusion partner (see partner chain) (N); His tag (C); made in house; host or cells: baculovirus; Tn5 (Trichoplusia ni) or TiniPro insect cells
Procedure, shortened: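 IC50 is taken from a four-parameter logistic fit of 8-point dilutions, with Kinase-Glo luminescence reporting residual ATP. Reactions ran 60 min at room temperature in TRIS pH 7.5 buffer with MgCl2, NaCl, CHAPS and DTT. Final levels were 10 nM enzyme, 1 μM ATP and 10 μg/mL PI.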

PI3K beta = molecular target: T2, PI3K beta (Homo sapiens, UniProt P42338); assay: PI3K beta kinase assay (Kinase-Glo luminescence); type: biochemical
T2 construct: for the full-length p110-b subunit are generated and fused by overlapping PCR; p85(iSH2) fusion partner (see partner chain) (N); His tag (C); made in house; host or cells: baculovirus; Tn5 (Trichoplusia ni) or TiniPro insect cells
T2 sequence (P42338 with tags, fused parts or gaps limits assumed): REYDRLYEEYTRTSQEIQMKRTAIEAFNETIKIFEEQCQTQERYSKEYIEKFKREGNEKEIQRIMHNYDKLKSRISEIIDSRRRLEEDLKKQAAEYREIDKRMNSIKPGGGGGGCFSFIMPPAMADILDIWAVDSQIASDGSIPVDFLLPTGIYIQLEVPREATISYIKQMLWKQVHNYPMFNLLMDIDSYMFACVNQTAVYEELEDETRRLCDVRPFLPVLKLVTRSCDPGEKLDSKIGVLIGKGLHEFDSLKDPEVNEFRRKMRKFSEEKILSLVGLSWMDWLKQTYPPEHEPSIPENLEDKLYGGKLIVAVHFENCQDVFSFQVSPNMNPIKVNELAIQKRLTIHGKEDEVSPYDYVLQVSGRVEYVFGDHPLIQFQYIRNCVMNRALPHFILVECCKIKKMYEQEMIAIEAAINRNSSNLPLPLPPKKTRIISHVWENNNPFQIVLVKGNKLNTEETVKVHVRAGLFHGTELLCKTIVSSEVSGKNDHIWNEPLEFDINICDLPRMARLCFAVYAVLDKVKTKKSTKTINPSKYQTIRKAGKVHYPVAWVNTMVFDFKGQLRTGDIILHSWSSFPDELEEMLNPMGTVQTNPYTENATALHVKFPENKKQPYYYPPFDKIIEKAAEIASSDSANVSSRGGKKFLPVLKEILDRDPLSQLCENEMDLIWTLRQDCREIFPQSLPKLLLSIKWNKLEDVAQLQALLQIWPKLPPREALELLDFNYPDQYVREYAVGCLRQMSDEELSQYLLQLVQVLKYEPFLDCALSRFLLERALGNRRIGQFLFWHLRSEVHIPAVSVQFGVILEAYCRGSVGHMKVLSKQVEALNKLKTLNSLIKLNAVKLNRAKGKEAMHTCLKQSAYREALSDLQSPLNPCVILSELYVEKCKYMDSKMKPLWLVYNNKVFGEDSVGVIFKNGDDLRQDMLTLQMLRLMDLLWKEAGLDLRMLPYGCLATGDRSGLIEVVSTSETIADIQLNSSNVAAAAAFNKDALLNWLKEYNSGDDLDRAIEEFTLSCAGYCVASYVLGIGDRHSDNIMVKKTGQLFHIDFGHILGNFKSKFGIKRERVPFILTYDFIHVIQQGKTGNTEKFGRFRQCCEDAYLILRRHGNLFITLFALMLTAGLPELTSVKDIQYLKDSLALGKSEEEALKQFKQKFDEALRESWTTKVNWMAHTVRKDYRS
Procedure, shortened: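 Residual ATP after a 60 min room-temperature reaction is quantified by Kinase-Glo luminescence. Enzyme: 25 nM BV-949 (p85 iSH2–linker–full-length p110β); substrates 1 μM ATP, 10 μg/mL PI; buffer Tris pH 7.5, MgCl2, NaCl, CHAPS, DTT. Eight concentrations per compound, four-parameter logistic IC50.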

mTOR = molecular target: T3, mTOR (Homo sapiens, UniProt P42345); assay: Biochemical assay for m-TOR by TR-FRET; settings: 8 μM ATP, 400 nM GFP-4EBP1, 0.5 nM mTOR
T3 construct: purchased Invitrogen Corporation (Carlsbad/CA, USA) PV4753
T3 sequence (P42345 1360-2549 limits assumed): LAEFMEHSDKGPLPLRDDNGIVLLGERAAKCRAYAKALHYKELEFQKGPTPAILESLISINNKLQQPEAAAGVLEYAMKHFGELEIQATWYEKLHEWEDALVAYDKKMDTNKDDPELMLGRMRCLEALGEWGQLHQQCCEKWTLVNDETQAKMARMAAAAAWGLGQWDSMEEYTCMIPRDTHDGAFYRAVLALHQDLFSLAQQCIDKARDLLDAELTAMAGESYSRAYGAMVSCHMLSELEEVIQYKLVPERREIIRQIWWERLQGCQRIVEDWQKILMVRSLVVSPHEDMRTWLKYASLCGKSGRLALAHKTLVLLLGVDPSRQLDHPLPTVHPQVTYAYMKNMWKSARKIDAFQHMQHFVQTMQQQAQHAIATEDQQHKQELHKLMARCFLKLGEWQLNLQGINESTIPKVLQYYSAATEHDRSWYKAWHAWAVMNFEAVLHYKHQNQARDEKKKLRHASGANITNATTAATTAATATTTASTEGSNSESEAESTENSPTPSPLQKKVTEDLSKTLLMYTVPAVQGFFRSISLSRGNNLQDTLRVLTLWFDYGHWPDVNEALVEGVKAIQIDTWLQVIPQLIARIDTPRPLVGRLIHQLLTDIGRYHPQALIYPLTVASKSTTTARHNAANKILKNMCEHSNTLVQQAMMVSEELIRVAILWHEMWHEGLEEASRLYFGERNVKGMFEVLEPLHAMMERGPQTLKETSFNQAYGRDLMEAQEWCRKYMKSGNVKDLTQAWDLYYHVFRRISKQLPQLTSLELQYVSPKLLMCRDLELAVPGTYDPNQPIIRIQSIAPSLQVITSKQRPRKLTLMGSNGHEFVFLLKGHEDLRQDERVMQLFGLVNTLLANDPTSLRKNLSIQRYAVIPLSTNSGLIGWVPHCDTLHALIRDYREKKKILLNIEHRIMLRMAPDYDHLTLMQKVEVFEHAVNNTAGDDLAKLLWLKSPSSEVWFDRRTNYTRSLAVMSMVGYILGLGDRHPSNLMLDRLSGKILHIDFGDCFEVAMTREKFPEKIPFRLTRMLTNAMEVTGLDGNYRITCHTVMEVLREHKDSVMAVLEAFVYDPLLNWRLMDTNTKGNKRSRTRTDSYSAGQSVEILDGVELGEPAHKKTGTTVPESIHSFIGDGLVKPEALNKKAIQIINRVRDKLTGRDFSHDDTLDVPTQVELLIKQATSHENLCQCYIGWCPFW
Procedure, shortened: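 TR-FRET detection of pThr46 on GFP-4EBP1 (400 nM final) using Tb3+-labelled antibody (0.5 nM), added with EDTA to stop reactions. Reactions ran at rt with 0.5 nM mTOR and 8 μM ATP (final) in HEPES pH 7.5 buffer containing 10 mM MnCl2.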

T1 sequence (P42336 with tags, fused parts or gaps limits assumed): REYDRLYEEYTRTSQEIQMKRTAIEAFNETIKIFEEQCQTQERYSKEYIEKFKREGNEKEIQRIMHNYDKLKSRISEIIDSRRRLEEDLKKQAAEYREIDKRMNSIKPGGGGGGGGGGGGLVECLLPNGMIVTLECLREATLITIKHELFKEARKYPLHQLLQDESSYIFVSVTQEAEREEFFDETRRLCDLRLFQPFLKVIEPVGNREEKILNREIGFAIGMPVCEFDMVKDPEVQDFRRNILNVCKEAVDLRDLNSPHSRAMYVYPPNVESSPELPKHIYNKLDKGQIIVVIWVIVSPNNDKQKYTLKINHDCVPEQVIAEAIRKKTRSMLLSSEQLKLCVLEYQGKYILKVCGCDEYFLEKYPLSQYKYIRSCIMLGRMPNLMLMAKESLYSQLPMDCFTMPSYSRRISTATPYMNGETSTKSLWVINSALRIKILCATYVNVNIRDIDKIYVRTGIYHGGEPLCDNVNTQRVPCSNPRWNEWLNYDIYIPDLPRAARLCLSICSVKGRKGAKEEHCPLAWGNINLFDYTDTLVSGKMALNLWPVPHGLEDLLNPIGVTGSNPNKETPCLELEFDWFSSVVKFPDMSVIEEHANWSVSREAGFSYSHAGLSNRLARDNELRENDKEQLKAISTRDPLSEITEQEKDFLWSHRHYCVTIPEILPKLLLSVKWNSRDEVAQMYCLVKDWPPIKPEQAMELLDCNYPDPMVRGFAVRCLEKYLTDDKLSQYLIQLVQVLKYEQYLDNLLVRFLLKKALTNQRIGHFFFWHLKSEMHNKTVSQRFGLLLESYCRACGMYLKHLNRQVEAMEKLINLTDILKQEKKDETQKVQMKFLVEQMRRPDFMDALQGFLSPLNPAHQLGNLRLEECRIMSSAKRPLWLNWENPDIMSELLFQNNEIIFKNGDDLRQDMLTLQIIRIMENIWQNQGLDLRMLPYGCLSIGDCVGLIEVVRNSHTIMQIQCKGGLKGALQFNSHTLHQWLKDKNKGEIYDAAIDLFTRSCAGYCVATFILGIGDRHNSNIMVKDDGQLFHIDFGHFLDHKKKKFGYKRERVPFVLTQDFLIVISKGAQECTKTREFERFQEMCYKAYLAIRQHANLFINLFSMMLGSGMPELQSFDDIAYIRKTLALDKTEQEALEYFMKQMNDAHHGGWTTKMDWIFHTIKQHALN

| SMILES | IC50 (PI3K alpha) [nM] | IC50 (PI3K beta) [nM] | IC50 (mTOR) [nM] |
| --- | --- | --- | --- |
| CNc1ccc(-c2ccc3ncc4c(c3c2)n(-c2cn(C)nc2C)c(=O)n4C)cn1 [Example 118.2, 1-(1,3-Dimethyl-1H-pyrazol-4-yl)-3-methyl-8-(6-methylamino-pyridin-3-yl)-1,3-dihydro-imidazo[4,5-c]quinolin-2-one] | 11 | 82 | 4 |
| CCn1cc(-n2c(=O)n(C)c3cnc4ccc(-c5ccc(NC)nc5)cc4c32)c(C)n1 [Example 118.4, 1-(1-Ethyl-3-methyl-1H-pyrazol-4-yl)-3-methyl-8-(6-methylamino-pyridin-3-yl)-1,3-dihydro-imidazo[4,5-c]quinolin-2-one] | 20 | 130 | 4 |
| Cc1nn(C)cc1-n1c(=O)n(C)c2cnc3ccc(-c4cncc(N(C)S(C)(=O)=O)c4)cc3c21 [Example 121, N-{5-[1-(1,3-Dimethyl-1H-pyrazol-4-yl)-3-methyl-2-oxo-2,3-dihydro-1H-imidazo[4,5-c]quinolin-8-yl]-pyridin-3-yl}-N-methyl-methanesulfonamide] | 19 | 93 | 91 |
| COc1ncc(-c2ccc3ncc4c(c3c2)n(-c2cn(C)nc2C)c(=O)n4C)cc1C(N)=O [Example 125.2, 5-[1-(1,3-Dimethyl-1H-pyrazol-4-yl)-3-methyl-2-oxo-2,3-dihydro-1H-imidazo[4,5-c]quinolin-8-yl]-2-methoxy-nicotinamide] | 50 | 93 | 10 |
| COc1ncc(-c2ccc3ncc4c(c3c2)n(-c2cn(C)nc2C)c(=O)n4C)cc1C#N [Example 132, 5-[1-(1,3-Dimethyl-1H-pyrazol-4-yl)-3-methyl-2-oxo-2,3-dihydro-1H-imidazo[4,5-c]quinolin-8-yl]-2-methoxy-nicotinonitrile] | 138 | 161 | 934 |
| CNc1ncc(-c2ccc3ncc4c(c3c2)n(-c2c(C)nn(C)c2C)c(=O)n4C)cc1F [Example 141.1, 8-(5-Fluoro-6-methylamino-pyridin-3-yl)-3-methyl-1-(1,3,5-trimethyl-1H-pyrazol-4-yl)-1,3-dihydro-imidazo[4,5-c]quinolin-2-one] | 817 | 469 | 447 |
| CNc1ncc(-c2ccc3ncc4c(c3c2)n(-c2cn(C)nc2C)c(=O)n4C)cc1F [Example 141.2, 1-(1,3-Dimethyl-1H-pyrazol-4-yl)-8-(5-fluoro-6-methylamino-pyridin-3-yl)-3-methyl-1,3-dihydro-imidazo[4,5-c]quinolin-2-one] | 14 | 142 | 7 |
| Cc1nn(C)c(C)c1-n1c(=O)n(C)c2cnc3ccc(-c4cnc(N)c(F)c4)cc3c21 [Example 142.1, 8-(6-Amino-5-fluoro-pyridin-3-yl)-3-methyl-1-(1,3,5-trimethyl-1H-pyrazol-4-yl)-1,3-dihydro-imidazo[4,5-c]quinolin-2-one] | 28 | 201 | 481 |
| CNc1ncc(-c2ccc3ncc4c(c3c2)n(-c2c(C)nn(C)c2C)c(=O)n4C)cc1Cl [Example 146.4, 8-(5-Chloro-6-methylamino-pyridin-3-yl)-3-methyl-1-(1,3,5-trimethyl-1H-pyrazol-4-yl)-1,3-dihydro-imidazo[4,5-c]quinolin-2-one] | 35 | 176 | 309 |
| CNc1ncc(-c2ccc3ncc4c(c3c2)n(-c2cc(C)nn2C)c(=O)n4C)cc1Cl [Example 146.5, 8-(5-Chloro-6-methylamino-pyridin-3-yl)-1-(2,5-dimethyl-2H-pyrazol-3-yl)-3-methyl-1,3-dihydro-imidazo[4,5-c]quinolin-2-one] | 9 | 167 | 48 |
| Cc1noc(C)c1-n1c(=O)n(C)c2cnc3ccc(-c4cnc(N)c(Cl)c4)cc3c21 [Example 148.4, 8-(6-Amino-5-chloro-pyridin-3-yl)-1-(3,5-dimethyl-isoxazol-4-yl)-3-methyl-1,3-dihydro-imidazo[4,5-c]quinolin-2-one] | 100 | 95 | 678 |
